The term IC50 denotes the concentration that inhibits the measured activity by half. Usually inhibition stands for the drop in the measured response relative to a control, in per cent. Low readings indicate a response near the control, high ones a response far below the control.

We go through seven compounds from ChEMBL document CHEMBL2146478, “Discovery of potent inhibitors of receptor protein tyrosine phosphatase sigma through the structure-based virtual screening” (Bioorg Med Chem Lett, 2012).

Experiment [1] concerns the target T1, Dual specificity protein phosphatase 4 (Homo sapiens, UniProt Q13115).
T1 sequence (Q13115 whole entry): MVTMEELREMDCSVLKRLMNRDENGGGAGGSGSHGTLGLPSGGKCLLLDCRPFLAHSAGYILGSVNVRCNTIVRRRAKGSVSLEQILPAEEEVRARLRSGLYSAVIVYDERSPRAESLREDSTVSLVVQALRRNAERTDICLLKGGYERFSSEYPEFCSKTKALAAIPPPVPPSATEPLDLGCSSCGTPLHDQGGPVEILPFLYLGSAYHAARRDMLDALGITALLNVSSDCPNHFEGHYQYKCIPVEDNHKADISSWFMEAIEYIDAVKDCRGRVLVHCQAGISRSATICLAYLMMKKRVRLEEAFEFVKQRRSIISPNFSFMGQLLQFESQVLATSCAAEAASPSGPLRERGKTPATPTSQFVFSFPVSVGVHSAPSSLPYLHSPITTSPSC
Briefly: Inhibition of MKP2.

Experiment [2] has as its target Protein tyrosine phosphatase type IVA 3 (Homo sapiens, UniProt O75365). Briefly: Inhibition of PRL3.
Experiment [3] concerns the target T2, Protein tyrosine phosphatase type IVA 1 (Homo sapiens, UniProt Q93096).
T2 sequence (Q93096 whole entry): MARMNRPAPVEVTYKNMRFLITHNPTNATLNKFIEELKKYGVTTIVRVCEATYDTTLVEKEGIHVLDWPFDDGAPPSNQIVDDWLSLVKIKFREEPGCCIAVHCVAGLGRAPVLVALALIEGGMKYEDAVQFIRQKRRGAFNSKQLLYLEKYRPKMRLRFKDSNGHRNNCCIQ
Briefly: Inhibition of PRL1.

The target of experiment [4] is T3, PTPsigma-(Brain) (Homo sapiens, UniProt Q9UM81). The experiment in a line: Inhibition of His-tagged PTPsigma catalytic domain amino acid 1369 to 1948 using DiFMUP as substrate at 2 uM after 20 mins by spectrofluorometric analysis.
Target sequence in this assay (Q9UM81 as listed by the source): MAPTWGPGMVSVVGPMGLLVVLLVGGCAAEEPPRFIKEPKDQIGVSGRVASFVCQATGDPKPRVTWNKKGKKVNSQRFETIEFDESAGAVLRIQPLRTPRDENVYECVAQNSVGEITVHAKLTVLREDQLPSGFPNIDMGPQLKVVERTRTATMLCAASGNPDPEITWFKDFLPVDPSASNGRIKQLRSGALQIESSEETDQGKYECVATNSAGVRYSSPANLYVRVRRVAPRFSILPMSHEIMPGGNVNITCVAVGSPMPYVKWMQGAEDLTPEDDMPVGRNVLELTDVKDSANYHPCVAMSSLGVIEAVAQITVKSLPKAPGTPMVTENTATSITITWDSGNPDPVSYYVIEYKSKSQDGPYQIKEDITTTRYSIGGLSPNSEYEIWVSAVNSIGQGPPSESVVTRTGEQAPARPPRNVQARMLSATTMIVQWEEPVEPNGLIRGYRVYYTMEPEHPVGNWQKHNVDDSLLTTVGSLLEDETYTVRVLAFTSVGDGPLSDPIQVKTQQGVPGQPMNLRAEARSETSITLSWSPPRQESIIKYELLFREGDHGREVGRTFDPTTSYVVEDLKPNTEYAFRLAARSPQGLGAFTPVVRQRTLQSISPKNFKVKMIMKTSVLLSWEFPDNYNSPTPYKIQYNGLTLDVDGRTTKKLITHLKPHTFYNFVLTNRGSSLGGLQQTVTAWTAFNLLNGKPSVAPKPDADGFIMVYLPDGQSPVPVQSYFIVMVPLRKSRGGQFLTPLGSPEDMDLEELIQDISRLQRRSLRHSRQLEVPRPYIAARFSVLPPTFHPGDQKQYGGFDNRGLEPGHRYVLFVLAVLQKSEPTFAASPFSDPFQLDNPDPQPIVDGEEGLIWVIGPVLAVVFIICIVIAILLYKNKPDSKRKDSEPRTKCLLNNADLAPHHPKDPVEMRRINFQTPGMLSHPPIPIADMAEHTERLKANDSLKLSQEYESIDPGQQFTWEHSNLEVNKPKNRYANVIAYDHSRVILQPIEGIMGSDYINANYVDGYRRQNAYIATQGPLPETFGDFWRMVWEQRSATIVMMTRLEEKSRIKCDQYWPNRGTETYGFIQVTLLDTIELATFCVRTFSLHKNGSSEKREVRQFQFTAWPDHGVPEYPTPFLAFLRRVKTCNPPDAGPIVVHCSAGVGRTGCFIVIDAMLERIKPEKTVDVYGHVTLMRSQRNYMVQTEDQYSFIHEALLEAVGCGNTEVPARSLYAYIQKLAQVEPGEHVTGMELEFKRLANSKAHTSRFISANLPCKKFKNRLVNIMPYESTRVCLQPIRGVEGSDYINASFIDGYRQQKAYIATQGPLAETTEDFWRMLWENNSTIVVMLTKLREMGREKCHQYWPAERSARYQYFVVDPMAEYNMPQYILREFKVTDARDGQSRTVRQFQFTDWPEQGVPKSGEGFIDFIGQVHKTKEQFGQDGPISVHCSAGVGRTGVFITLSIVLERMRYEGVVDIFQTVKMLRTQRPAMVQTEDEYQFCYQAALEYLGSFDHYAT
Experiment [5] has as its target T3, PTPsigma-(Brain). Briefly: Inhibition of His-tagged PTPsigma catalytic domain amino acid 1369 to 1948 using DiFMUP as substrate after 20 mins by spectrofluorometric analysis.
Target sequence in this assay (Q9UM81 whole entry, the tested form may be a part): as the sequence (Q9UM81 as listed by the source) above

Sequence of Protein tyrosine phosphatase type IVA 3 (O75365 whole entry): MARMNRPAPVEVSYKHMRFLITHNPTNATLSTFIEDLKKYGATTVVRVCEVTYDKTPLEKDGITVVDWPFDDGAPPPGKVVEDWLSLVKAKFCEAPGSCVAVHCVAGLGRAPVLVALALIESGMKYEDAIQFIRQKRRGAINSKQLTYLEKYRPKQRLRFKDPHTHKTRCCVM

Consider `CC1=CC2=NC(=O)/C(=C/c3ccc(O)c(O)c3)C(=N)N2O1`, for which the concentration for half-maximal inhibition (IC50) in experiment [1] is 55.4 µM; in experiment [2], more than 100 µM; in experiment [3] it was more than 100 µM; against PTPsigma-(Brain) [5], 0.7 µM. Besides, at PTPsigma-(Brain) [4], the inhibition was more than 50%.
Regarding `N=C1/C(=C\c2ccc(O)c(O)c2)C(=O)N=C2SC(c3ccc(O)cc3)=NN12`, the half-inhibitory concentration (IC50) in experiment [1] was more than 100 µM; in experiment [2], 33.2 µM; in experiment [3], 39.8 µM; on PTPsigma-(Brain) [5] it was 1.2 µM. This compound came in with an inhibition on PTPsigma-(Brain) [4] of more than 50%.
The matching figures for `O=C(CSc1nnc(-c2ccco2)c(-c2ccco2)n1)Nc1ccccc1[N+](=O)[O-]`: more than 100 µM, 57 µM, more than 100 µM, 1.3 µM and more than 50%.
For `O=C1NC(=O)/C(=C\c2cccn2-c2ccc(C(=O)O)cc2)N1`, in that order: more than 100 µM, more than 100 µM, more than 100 µM, 0.2 µM and more than 50%.
Consider `O=C1NC(=S)S/C1=C\c1cn(-c2ccccc2)nc1-c1cccc(OCc2ccccc2Cl)c1`, for which the IC50 in experiment [1] is 21 µM; in experiment [2], 27.6 µM; in experiment [3], 37.2 µM; on PTPsigma-(Brain) [5] it was 0.6 µM. The compound further showed an inhibition against PTPsigma-(Brain) [4] of more than 50%.
Regarding `O=c1/c(=C/c2ccc(O)c(O)c2)sc2nc3ccccc3n12`, the IC50 was more than 100 µM in experiment [1], 11 µM in experiment [2], 14 µM in experiment [3] and 0.9 µM against PTPsigma-(Brain) [5]. For the same compound, at PTPsigma-(Brain) [4], the inhibition was more than 50%.
For `c1ccc2nc(-c3nnc4sc(-c5cnccn5)nn34)ccc2c1`, in that order: 2.29 µM, more than 100 µM, 21 µM, 0.1 µM and more than 50%.
